Reference: publication PMC8725855 (Journal of Enzyme Inhibition and Medicinal Chemistry, 2021)
Starred links: 1 amine or outer side, 2 acyl side, 3 side chain; linkers in the order of their positions; H or OH if unused. Suc = O=C(CCC(=O)[*:2])[*:1]

Experiments:
[1] = system: lung adenocarcinoma A549 cells; assay type: cell-based, human; conditions: MTT, 72 h incubation; read-out: IC50 (μM) ± SD A549
Description: (§1) All cell lines were purchased from the American Type Culture Collection (ATCC, Manassas, VA)[29].
(§2) 24 h later, triplicate wells were treated with media and the compounds being tested. After 72 h of incubation at 37 °C in 5% CO2, the drug-containing medium was removed and replaced with […] of fresh medium containing 5 mg/mL MTT solution. After 4 h of incubation, the medium with MTT was removed, and […] of dimethyl sulfoxide (DMSO) was added to each well. The plates were gently agitated until the purple formazan crystals were dissolved, and the OD490 values were determined using a microplate reader (MK3, Thermo, Germany). The data were calculated and plotted as the percent viability compared to the control.

[2] = system: gastric adenocarcinoma SGC-7901 cells; assay type: cell-based, human; conditions: MTT, 72 h incubation; read-out: IC50 (μM) ± SD SGC-7901
Description: as §1, §2

[3] = system: cervical carcinoma HeLa cells; assay type: cell-based, human; conditions: MTT, 72 h incubation; read-out: IC50 (μM) ± SD Hela
Description: as §1, §2

[4] = In vitro release of Deac from biotin conjugates with DTT (HPLC); assay type: physicochemical; conditions: 5 μM conjugate
Description: To investigate the mechanism of GSH-triggered drug release, the in vitro drug release profiles of Deac-SS-Biotin (9) and Deac-Biotin (10) were investigated using DTT (Glutathione mimetic). As shown in Figure 5(A), almost none of Deac was released from Deac-SS-Biotin (9) within 24 h in blank PBS (pH 7.2–7.4, without DTT), and more than 70% of Deac was released within 8 h in the presence of 5, 10, and 20 μM DTT. By contrast, there was negligible Deac (<1.0%) released from Deac-Biotin (10) after 24 h incubation in the presence or absence of 20 μM DTT (Figure 5(B)). […] Furthermore, Deac release from the Deac-SS-Biotin (9) at 10 μM DTT was also investigated by HPLC analysis (Figure 5(C)). Free Deac-SS-Biotin (9) was eluted at 10.8 min in HPLC chromatogram. As 10 μM DTT was added to Deac-SS-Biotin (9), it was sheared by DTT. As chemical reaction involved, this scission was subjected to intramolecular cyclisation, followed by ring-forming condensation, resulting in the liberation of Deac. The peak at 14.3 min appeared accompanied by the disappearance of Deac-SS-Biotin (9), and well-matched with free Deac.
Figure 5. In vitro release of Deac from prodrugs. (A) Release profiles of Deac from Deac-SS-Biotin (9, 5 μM) with 0 μM, 5 μM, 10 μM and 20 μM DTT in PBS (pH 7.2–7.4) (n = 3). (B) Release profiles of Deac from Deac-Biotin (10, 5 μM) with 0 μM, 5 μM, 10 μM and 20 μM DTT in PBS (pH 7.2–7.4) (n = 3). (C) HPLC spectra of Deac-SS-Biotin (9, 5 μM) with 10 μM DTT at 0 and 24 h.
The release of Deac from Deac-SS-Biotin was studied in PBS (pH 7.2–7.4) containing 20% DMSO with 0, 5, 10, or 20 μM, dithiothreitol (DTT), respectively. Briefly, biotin-conjugates (5 μM) were incubated in 10 ml of release medium at 37 °C. At timed intervals, 0.1 ml of sample was withdrawn, and the content of Deac, Deac-Biotin, and Deac-SS-Biotin was determined by HPLC (HPLC-LC-20AT, Shimadzu using SPD-20A UV as the detector, C18 (4.6 × 250 mm, […]) as HPLC analysis column. Method: gradient: 45% methanol in water as mobile elution, flow rate: 1.0 ml min^-1). The UV detector was kept at 254 nm.

[5] = system: mouse fibroblasts L929 cells; assay type: cell-based; conditions: MTT, 72 h incubation, normal cells; read-out: IC50 (μM) ± SD L929
Description: as §1, §2

A549 cells = assay: Cytotoxicity in A549 cells in the presence of biotin (biotin receptor competition); assay type: cell-based, human
Description: To explore the contribution of biotin receptor to the transport of biotin conjugates, Deac-SS-Biotin (9) and biotin were evaluated for the antiproliferative activity against A549 cells.
Figure 6. In vitro cytotoxicity of biotin, Deac (13), and Deac-SS-Biotin (9) in A549 cells. Cytotoxicity of biotin, Deac + biotin, and Deac-SS-Biotin + biotin in A549 cells (n = 3).
as §2

porcine brain tubulin = porcine brain tubulin (Sus scrofa, UniProt P02550+P02554)
Sequence of porcine brain tubulin (P02554 whole entry): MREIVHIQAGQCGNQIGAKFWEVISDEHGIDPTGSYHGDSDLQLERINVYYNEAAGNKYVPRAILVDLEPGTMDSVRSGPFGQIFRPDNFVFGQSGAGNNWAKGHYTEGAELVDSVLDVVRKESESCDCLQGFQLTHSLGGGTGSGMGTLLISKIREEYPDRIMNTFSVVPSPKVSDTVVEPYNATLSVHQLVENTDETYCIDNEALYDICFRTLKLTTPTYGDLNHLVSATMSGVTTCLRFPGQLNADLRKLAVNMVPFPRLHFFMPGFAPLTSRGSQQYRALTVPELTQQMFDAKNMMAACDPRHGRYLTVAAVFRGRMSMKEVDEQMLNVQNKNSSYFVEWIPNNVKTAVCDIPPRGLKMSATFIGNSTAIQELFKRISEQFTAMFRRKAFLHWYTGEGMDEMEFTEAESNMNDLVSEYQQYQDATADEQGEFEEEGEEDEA
Sequence of porcine brain tubulin (P02550 whole entry): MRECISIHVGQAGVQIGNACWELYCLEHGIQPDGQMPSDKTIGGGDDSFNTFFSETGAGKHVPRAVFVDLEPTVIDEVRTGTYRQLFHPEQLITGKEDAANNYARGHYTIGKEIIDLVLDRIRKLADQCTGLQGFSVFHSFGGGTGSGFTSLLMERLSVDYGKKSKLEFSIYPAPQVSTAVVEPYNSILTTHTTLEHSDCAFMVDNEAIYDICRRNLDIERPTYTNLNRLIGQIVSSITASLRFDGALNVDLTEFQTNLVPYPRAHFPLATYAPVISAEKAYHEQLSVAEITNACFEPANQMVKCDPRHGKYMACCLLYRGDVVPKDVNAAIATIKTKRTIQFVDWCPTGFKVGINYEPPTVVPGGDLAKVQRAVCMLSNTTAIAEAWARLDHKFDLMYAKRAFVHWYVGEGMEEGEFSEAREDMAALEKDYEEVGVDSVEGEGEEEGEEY
Description: To examine the biological mechanism of biotin conjugates, Deac-SS-Biotin (9) was evaluated for its effects on tubulin polymerisation (Figure 7).
Figure 7. The effect of Deac-SS-Biotin (9) on tubulin polymerisation. […] The reaction was monitored at 37 °C.
First, 96-well plate was incubated with […] of inhibitors in various concentrations at 37 °C for 1 min. Then […] of the tubulin reaction mix was added. The samples were mixed well, and tubulin assembly was monitored (emission wavelength of 420 nm; excitation wavelength pf 360 nm) at 1 min intervals for 90 min at 37 °C using a plate reader (FAS-Calibur, BD Biosciences, USA).

[6] = Physiological stability by HPLC analysis; assay type: physicochemical; conditions: 5 µM; water, PBS, and cell culture fluid; 72 h incubation, room temperature
Description: Figure 4. Stabilities of Deac-SS-Biotin (9, 5 µM) in water, and PBS cell culture fluid were investigated by HPLC analysis. (A) HPLC analysis of Deac-SS-Biotin (9) in water after incubation for and 72 h; (B) HPLC analysis of Deac-SS-Biotin (9) in PBS after incubation for and 72 h; (C) HPLC analysis of Deac-SS-Biotin (9) in cell culture fluid after incubation for and 72 h.
To 8 ml of water, PBS, or cell culture fluid, 2 ml of DMSO stock solution of Deac-SS-Biotin was added. The mixture was incubated with gentle shaking for 72 h at room temperature during which the mixture was measured by HPLC spectra.

[7] = system: cells over-expressing active legumain (M38L, HCT116); conditions: HCT116 vs HEK293, M4C, SW620; cited from earlier work

Compound | IC50 [1] [µM] | IC50 [2] [µM] | IC50 [3] [µM] | IC50 [5] [µM] | also measured
5-((3aS,4S,6aR)-2-oxohexahydro-1H-thieno[3,4-d]imidazol-4-yl)-N-((S)-2,3,4,10-tetramethoxy-9-oxo-5,6,7,9-tetrahydrobenzo[a]heptalen-7-yl)pentanamide [Compound 10] | 4.85 ± 0.13 | 4.9 ± 0.18 | 6.35 ± 0.11 | 15.8 ± 0.31 | Deac released ([4]; PBS pH 7.2–7.4, after 24 h incubation in the presence or absence of 20 μM DTT): < 1.0%
5-oxo-5–(2-(5-((3aS,4S,6aR)-2-oxohexahydro-1H-thieno[3,4-d]imidazol-4-yl)pentanoyl)hydrazinyl)-N-((S)-2,3,4,10-tetramethoxy-9-oxo-5,6,7,9-tetrahydrobenzo[a]heptalen-7-yl)pentanamide [11 b] | 2.23 ± 0.12 | 2.29 ± 0.09 | 6.94 ± 0.16 | 13.4 ± 0.18 | 
2-((2-((((S)-2,3,4,10-tetramethoxy-9-oxo-5,6,7,9-tetrahydrobenzo[a]heptalen-7-yl)carbamoyl)oxy)ethyl)disulfanyl)ethyl 5-((3aS,4S,6aR)-2-oxohexahydro-1H-thieno[3,4-d]imidazol-4-yl)pentanoate [Compound 9] | 0.085 ± 0.008 | 0.124 ± 0.011 | 0.108 ± 0.01 | 4.22 ± 0.102 | cell viability (A549 cells; A549, compound at 2-fold IC50, biotin 0.075 μM): 23.6%; cell viability (A549 cells; A549, compound at 2-fold IC50, biotin 0.60 μM): 68.9%; cell viability (A549 cells; A549, compound at 2-fold IC50, in the absence of biotin): 17.7%; Deac released ([4]; PBS pH 7.2–7.4, in the presence of 5, 10, and 20 μM DTT, within 8 h, 37 °C): more than 70%; Deac released ([4]; blank PBS (pH 7.2–7.4, without DTT), within 24 h, 37 °C): almost none; anti-tubulin polymerisation activity after coincubation with DTT (porcine brain tubulin; compound at 5 µM and DTT at 10 µM): strong anti-tubulin polymerisation activity; inhibition activity on tubulin polymerisation (porcine brain tubulin; compound at 5 µM, without DTT): weak inhibition activity; peak area and peak height (HPLC stability) [6]: nearly remained unchanged
2-((2-oxo-2–(2-(5-((3aS,4S,6aR)-2-oxohexahydro-1H-thieno[3,4-d]imidazol-4-yl)pentanoyl)hydrazinyl)ethyl)thio)-N-((S)-2,3,4,10-tetramethoxy-9-oxo-5,6,7,9-tetrahydrobenzo[a]heptalen-7-yl)acetamide [Compound 11c] | 1.31 ± 0.092 | 1.95 ± 0.071 | 2.17 ± 0.1 | 10.7 ± 0.2 | 
5: legumain-cleavable peptide (Suc-Ala-Ala-Asn-Val)-colchicine (Suc-AANV-colchicine) [Compound 5] |  |  |  |  | toxicity to cells over-expressing active legumain compared to cells expressing low levels of active or only prolegumain [7]: more toxic
O=C(O)CCCC[C@@H]1SC[C@@H]2NC(=O)N[C@@H]21 [biotin, reference compound] |  |  |  |  | cytotoxicity alone (A549 cells; A549, biotin alone at various concentrations): no cytotoxicity
4-oxo-4–(2-(5-((3aS,4S,6aR)-2-oxohexahydro-1H-thieno[3,4-d]imidazol-4-yl)pentanoyl)hydrazinyl)-N-((S)-2,3,4,10-tetramethoxy-9-oxo-5,6,7,9-tetrahydrobenzo[a]heptalen-7-yl)butanamide [Compound 11a] | 6.52 ± 0.19 | 7.52 ± 0.12 | 3.5 ± 0.15 | > 20 | 
